Results published in patent US10568947B2, “Treatment of cancer using a CLL-1 chimeric antigen receptor” (Novartis AG, priority 2014, dated 2020).
“Also recorded” adds a separate entry of the source.

How the values were obtained:
[1] = test system: primary AML blasts; test: chemotherapy followed by CLL1-CART cells in primary AML xenografts; assay type: in vivo, NSG-S mice; details: two weeks after cytarabine 60 mg/kg i.p. daily days 35-39
Procedure: NSG mice that are additionally transgenic for stem cell factor, GM-CSF and IL-3 (NSG-S) were injected with primary AML blasts (3×10^6 via tail vain injection, day 0). After 4-6 weeks, peripheral blood (PB) was collected to confirm engraftment, which was defined as the presence of >1% circulating leukemic cells (live human CD45dim cells). AML xenografts were then treated with cytarabine (Ara-C, 60 mg/kg by intra-peritoneal injection, daily between days 35-39). Peripheral blood counts were monitored and then these xenografts were randomized to receive CLL1 directed CART cells or control untransduced T cells (1×10^5 I.V.) on day 55. Following that, serial retro-orbital bleedings were performed and absolute leukemic blast count was calculated as a measure of disease burden and the xenografts were followed up for survival.

[2] = test system: Nalm-6; test: huCART19 proliferation in co-culture with RAD001; assay type: cell-based, human; details: 4 day co-culture with Nalm-6; 0.0032 and 0.016 nM RAD001
Excerpt: A humanized, anti-human CD19 CAR (huCART19) lentiviral transfer vector was used to produce the genomic material packaged into VSVg pseudotyped lentiviral particles. The amino acid and nucleotide sequence of the humanized anti-human CD19 CAR (huCART19) is CAR 1, ID 104875 described in PCT publication, WO2014/153270, filed Mar. 15, 2014, and is designated SEQ ID NOs. 85 and 31 therein.
Lentiviral transfer vector DNA is mixed with the three packaging components VSVg env, gag/pol and rev in combination with lipofectamine reagent to transfect Lenti-X 293T cells. Medium is changed after 24 h and 30 h thereafter, the virus-containing media is collected, filtered and stored at −80° C. CARTs are generated by transduction of fresh or frozen naïve T cells obtained by negative magnetic selection of healthy donor blood or leukopak. […] The percentage of cells transduced (expressing the CARs on the cell surface) and the level of CAR expression (relative fluorescence intensity, Geo Mean) are determined by flow cytometric analysis between days 7 and 9. […]
To evaluate the functionality of CARTs, the T cells are thawed and counted, and viability is assessed by Cellometer. […]
For measuring the proliferation of CARTs, T cells are cultured with target cells at a ratio of 1:1. […] The number of T cells is assessed by flow cytometry using counting beads as reference.

[3] = test system: NALM6-luc tumors; test: NALM6-luc tumor growth with daily RAD001 dosing; assay type: in vivo, NSG mice; details: daily oral RAD001 alone, 0.3, 1, 3, 10 mg/kg
Procedure: The NALM6 human acute lymphoblastic leukemia (ALL) cell line was developed from the peripheral blood of a patient with relapsed ALL. The cells were then tagged with firefly luciferase. These suspension cells grow in RPMI supplemented with 10% heat inactivated fetal bovine serum.
6 week old NSG (NOD.Cg-Prkdc^scidIl2rg^tm1Wjl/SzJ) mice were received from the Jackson Laboratory (stock number 005557).
(§1) NALM6-luc cells were grown and expanded in vitro in RPMI supplemented with 10% heat inactivated fetal bovine serum. The cells were then transferred to a 15 ml conical tube and washed twice with cold sterile PBS. NALM6-luc cells were then counted and resuspended at a concentration of 10×10^6 cells per milliliter of PBS. The cells were placed on ice and immediately (within one hour) implanted in the mice. NALM6-luc cells were injected intravenously via the tail vein in a 100 μl volume, for a total of 1×10^6 cells per mouse.
(§2) A concentrated micro-emulsion of 50 mg equal to 1 mg RAD001 was formulated and then resuspended in D5W (dextrose 5% in water) at the time of dosing. Mice were orally dosed daily (via oral gavage) with 200 μl of the desired doses of RAD001.

[4] = RAD001 pharmacokinetics in blood of tumor bearing mice; assay type: in vivo, NSG mice
Procedure: as §2
Mice were dosed daily with RAD001 starting 7 days post tumor implantation. Dosing groups were as follows: 0.3 mg/kg, 1 mg/kg, 3 mg/kg, and 10 mg/kg. Mice were bled on days 0 and 14 following the first and last dose of RAD001, at the following time points for PK analysis: 15 minutes, 30 minutes, 1 hour, 2 hours, 4 hours, 8 hours, 12 hours, and 24 hours.

[5] = in vivo proliferation of huCAR19 CAR T cells with RAD001; details: NALM6-luc NSG mice, daily oral RAD001, lowest doses (0.003 mg/kg)
Procedure: as §1
Mice were administered 5×10^6 CAR T cells 7 days after tumor implantation. Cells were partially thawed in a 37 degree Celsius water bath and then completely thawed by the addition of 1 ml of cold sterile PBS to the tube containing the cells. The thawed cells were transferred to a 15 ml falcon tube and adjusted to a final volume of 10 mls with PBS. The cells were washed twice at 1000 rpm for 10 minutes each time and then counted on a hemocytometer. T cells were then resuspended at a concentration of 50×10^6 CAR T cells per ml of cold PBS and kept on ice until the mice were dosed. […]
Based on these doses, huCAR19 CAR T cells were dosed with and without RAD001 to determine the proliferative ability of these cells. […] Mice were monitored via FACS for T cell expansion.

SMILES	mean fluorescence intensity (MFI) of CLL1 in leukemic cells (live huCD45dim) [1]	proliferation of huCART19 with RAD001 versus without [2]	growth of NALM6-luc tumors [3]	concentration of RAD001 (blood) ([4]; 24 hours after the final dose)	concentration at 24 h ([4]; NSG, mouse, blood, oral, 24 hours after dosing, lowest dose 0.3 mg/kg, day 0 and day 14, read-out: RAD001 concentrations in the blood) [nM]	stability in the blood of tumor bearing mice ([4]; daily oral dosing, day 0 and day 14 PK)	proliferation of huCAR19 CAR T cells in vivo [5]
Nc1ccn([C@@H]2O[C@H](CO)[C@@H](O)[C@@H]2O)c(=O)n1 [cytarabine]	significant increase						
CO[C@H]1C[C@@H]2CC[C@@H](C)[C@@](O)(O2)C(=O)C(=O)N2CCCC[C@H]2C(=O)O[C@H]([C@H](C)C[C@@H]2CC[C@@H](OCCO)[C@H](OC)C2)CC(=O)[C@H](C)/C=C(\C)[C@@H](O)[C@@H](OC)C(=O)[C@H](C)C[C@H](C)/C=C/C=C/C=C/1C [RAD001, (1R,9S,12S,15R,16E,18R,19R,21R,23S,24E,26E,28E,30S,32S,35R)-1,18-dihydroxy-12-{(1R)-2-[(1S,3R,4R)-4-(2-hydroxyethoxy)-3-methoxycyclohexyl]-1-methylethyl}-19,30-dimethoxy-15,17,21,23,29,35-hexamethyl-11,36-dioxa-4-aza-tricyclo[30.3.1.04,9]hexatriaconta-16,24,26,28-tetraene-2,3,10,14,20-pentaone]		proliferation was higher than observed without the addition of RAD001	did not have an impact	above 10 nM	> 10	fairly stable	enhanced proliferation; also recorded: enhancement in CAR T cell proliferation
